One data set deals with MCF7. Put plainly: cells. The settings on record: Homo sapiens, MCF7, 72 h.
In the next data set the test system is U2OS. Put plainly: Antiproliferative activity against human U2OS assessed as reduction in cell viability incubated for 72 hrs by MTT assay. The data set is classed as functional, cell-based.
Data set [1] deals with Heat shock protein HSP 90-alpha (Homo sapiens, UniProt P07900). Put plainly: Displacement of FITC-geldanamycin from N-terminal HSP90alpha (unknown origin) after 30 mins by fluorescence polarization competitive binding assay. A general note: In fluorescence polarisation assays a small probe gives low polarisation when free and higher when bound to something large.
For the next data set, the system named is L02. Put plainly: Cytotoxicity against human L02 cells assessed as reduction in cell viability incubated for 72 hrs by MTT assay. The data set is classed as cell-based. The settings on record: L02, 72 h.
The next data set concerns HepG2. Put plainly: Antiproliferative activity against human HepG2 assessed as reduction in cell viability incubated for 72 hrs by MTT assay. Type of data set: functional, cell-based. The settings on record: HepG2, 72 h. Background: Formazan colour is commonly taken as a measure of viable cells.
The target of a further data set is Endoplasmin (Homo sapiens, UniProt P14625). Put plainly: Displacement of FITC-geldanamycin from N-terminal GRP94 (unknown origin) after 30 mins by fluorescence polarization competitive binding assay.
Endoplasmin, sequence (P14625 whole entry): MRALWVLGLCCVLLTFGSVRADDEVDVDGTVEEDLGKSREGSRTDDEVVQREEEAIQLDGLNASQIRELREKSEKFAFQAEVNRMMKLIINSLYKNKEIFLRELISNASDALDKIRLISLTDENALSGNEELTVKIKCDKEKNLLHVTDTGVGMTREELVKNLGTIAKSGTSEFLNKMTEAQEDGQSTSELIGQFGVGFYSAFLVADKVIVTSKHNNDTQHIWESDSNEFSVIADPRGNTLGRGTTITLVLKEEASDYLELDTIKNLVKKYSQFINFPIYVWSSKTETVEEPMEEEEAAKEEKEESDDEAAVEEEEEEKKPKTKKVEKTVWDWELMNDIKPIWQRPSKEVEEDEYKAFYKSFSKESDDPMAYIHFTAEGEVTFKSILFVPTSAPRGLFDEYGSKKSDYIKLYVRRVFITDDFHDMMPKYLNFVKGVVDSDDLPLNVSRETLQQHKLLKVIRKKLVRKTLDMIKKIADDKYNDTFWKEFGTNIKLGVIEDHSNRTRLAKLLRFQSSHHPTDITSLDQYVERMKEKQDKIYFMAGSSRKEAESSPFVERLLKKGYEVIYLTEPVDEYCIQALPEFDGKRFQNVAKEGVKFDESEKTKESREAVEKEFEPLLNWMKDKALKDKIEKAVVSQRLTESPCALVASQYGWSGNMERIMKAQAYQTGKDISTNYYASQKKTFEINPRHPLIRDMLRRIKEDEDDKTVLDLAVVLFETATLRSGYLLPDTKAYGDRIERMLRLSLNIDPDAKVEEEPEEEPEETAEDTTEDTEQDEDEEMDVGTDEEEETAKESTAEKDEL
Data set [2] in a line: Selectivity ratio of IC50 for inhibition of FITC-geldanamycin binding to N-terminal GRP94 (unknown origin) to IC50 for inhibition of FITC-geldanamycin binding to N-terminal HSP90alpha (unknown origin).
Another data set concerns MDA-MB-468. Put plainly: Antiproliferative activity against human MDA-MB-468 assessed as reduction in cell viability incubated for 72 hrs by MTT assay. The data set is classed as functional, cell-based. The following applies: MDA-MB-468, 72 h.
The subject of data set [3] is HCT-116. Put plainly: cells. The following applies: Homo sapiens, HCT-116, 72 h.
Description: Antiproliferative activity against human HCT-116 cells assessed as reduction in cell viability incubated for 72 hrs by MTT assay
The test system of the next data set is MKN-28. Put plainly: Antiproliferative activity against human MKN-28 assessed as reduction in cell viability incubated for 72 hrs by MTT assay. The data set is classed as functional, cell-based. The following applies: MKN-28, 72 h.
The subject of another data set is BT-474. Put plainly: Antiproliferative activity against human BT-474 assessed as reduction in cell viability incubated for 72 hrs by MTT assay. Type of data set: functional, cell-based. The settings on record: BT-474, 72 h.
The next data set deals with K562. Put plainly: Antiproliferative activity against human K562 assessed as reduction in cell viability incubated for 72 hrs by MTT assay. The data set is classed as functional, cell-based. The following applies: K562, 72 h.
In data set [4] the test system is HCT-116. Put plainly: Antitumor activity against human HCT-116 cells xenografted in nude mouse assessed as reduction in relative tumor volume by measuring T/C ratio at 60 mg/kg, ip administered every other day for 16 days and monitored every 3 days. Type of data set: functional. The following applies: time 16 day.
Another data set deals with MV4-11. Put plainly: Antiproliferative activity against human MV4-11 assessed as reduction in cell viability incubated for 72 hrs by MTT assay. Type of data set: functional, cell-based. The settings on record: MV4-11, 72 h.
The test system of a further data set is SK-BR-3. Put plainly: Antiproliferative activity against human SK-BR-3 assessed as reduction in cell viability incubated for 72 hrs by MTT assay. The following applies: SK-BR-3, 72 h. The data set is classed as functional, cell-based.
A further data set concerns MDA-MB-231. Put plainly: Antiproliferative activity against human MDA-MB-231 assessed as reduction in cell viability incubated for 72 hrs by MTT assay. The data set is classed as functional, cell-based. The settings on record: MDA-MB-231, 72 h.
The test system of a further data set is T47D. Put plainly: Antiproliferative activity against human T47D assessed as reduction in cell viability incubated for 72 hrs by MTT assay. Type of data set: functional, cell-based.
The test system of another data set is A549. Put plainly: Antiproliferative activity against human A549 assessed as reduction in cell viability incubated for 72 hrs by MTT assay. The data set is classed as functional, cell-based. The settings on record: A549, 72 h.
A short description of data set [5]: Permeability of the compound at pH 7.4 by PAMPA. Type of data set: ADME. The following applies: read-out: permeability. In general terms: The PAMPA barrier holds no transporters, so it reflects passive diffusion.
Data set [6] addresses T1, Heat shock protein HSP90 (Homo sapiens) (UniProt P07900+P08238). Put plainly: Inhibition of HSP90 in human HCT-116 cells assessed as reduction in phosphorylated Erk after 24 hrs by Western blot analysis. Type of data set: cell-based. The following applies: dose 0.01-3 µM.
The subject of data set [7] is HCT-116. Put plainly: Antitumor activity against human HCT-116 cells xenografted in nude mouse assessed as decrease in tumor cells at 40 to 60 mg/kg, ip administered every other day for 16 days by hematoxylin and eosin staining based assay. The settings on record: dose 40-60 mg/kg, time 16.0 day.
In data set [8] the test system is Mus musculus. Put plainly: In vivo inhibition of HSP90 in nude mouse xenografted with human HCT-116 cells assessed as upregulation of HSP70 protein expression in tumor at 40 to 60 mg/kg, ip administered every other day for 16 days and measured after 12 hrs post last dose by Western blot analysis. The settings on record: dose 40-60 mg/kg, time 16.0 day.
Data set [9] relates to Rattus norvegicus. Put plainly: Ex vivo inhibition of HSP90 in Sprague-Dawley rat assessed as up regulation of HSP70 expression in retina at 20 mg/kg, iv administered for 2 consecutive days and measured 24 hrs post last dose by Western blot analysis. The settings on record: time 3.0 day. Type of data set: functional, organism-based.
The test system of data set [10] is Mus musculus. Put plainly: In vivo inhibition of HSP90 in nude mouse xenografted with human HCT-116 cells assessed as decrease in Erk protein level in tumor at 40 to 60 mg/kg, ip administered every other day for 16 days and measured after 12 hrs post last dose by Western blot analysis. The settings on record: dose 40-60 mg/kg, time 16.0 day.
Data set [11] deals with Rattus norvegicus. Put plainly: Ex vivo inhibition of HSP90 in Sprague-Dawley rat assessed as up regulation of HSP70 expression in retina at 20 mg/kg, iv administered for 2 consecutive days and measured 24 hrs post last dose by immunohistochemistry analysis. The data set is classed as functional, organism-based. The settings on record: time 3.0 day.
Data set [12] has as its target T1, Heat shock protein HSP90 (Homo sapiens). Put plainly: Inhibition of HSP90 in human HCT-116 cells assessed as reduction in Erk protein expression after 24 hrs by Western blot analysis. The settings on record: dose 0.01-3 µM. Type of data set: cell-based.
The target is the same in data set [13]. Put plainly: Inhibition of HSP90 in human HCT-116 cells assessed as reduction in AKT protein expression after 24 hrs by Western blot analysis. Type of data set: cell-based. The following applies: dose 0.01-3 µM.
The target is the same in data set [14]. Put plainly: Inhibition of HSP90 in human HCT-116 cells assessed as induction of HSP70 expression after 24 hrs by Western blot analysis. Type of data set: cell-based. The settings on record: dose 0.01-3 µM.
Data set [15] relates to Mus musculus. Put plainly: In vivo inhibition of HSP90 in nude mouse xenografted with human HCT-116 cells assessed as decrease in Akt protein level in tumor at 40 to 60 mg/kg, ip administered every other day for 16 days and measured after 12 hrs post last dose by Western blot analysis. The settings on record: dose 40-60 mg/kg, time 16.0 day.
Data set [16] has as its system Mus musculus. Put plainly: In vivo inhibition of HSP90 in nude mouse xenografted with human HCT-116 cells assessed as upregulation of HSP90 protein expression in tumor at 40 to 60 mg/kg, ip administered every other day for 16 days and measured after 12 hrs post last dose by Western blot analysis. The following applies: dose 40-60 mg/kg, time 16.0 day.
Data set [17] is described as follows: Apparent volume of distribution in rat at 10 mg/kg, iv measured upto 24 hrs by LC-MS/MS analysis. The data set is classed as ADME, organism-based. The settings on record: in vivo, read-out: Vz.
Data set [18] is described as follows: Toxicity in nude mouse xenografted with human HCT-116 cells assessed as change in body weight at 40 to 60 mg/kg, ip administered every other day for 16 days and monitored every 3 days. The following applies: in vivo, 384 h.
Data set [19] concerns HCT-116. Put plainly: Antitumor activity against human HCT-116 cells xenografted in nude mouse assessed as reduction in relative tumor volume by measuring T/C ratio at 40 mg/kg, ip administered every other day for 16 days and monitored every 3 days. The following applies: time 16 day. Type of data set: functional.
The nature of data set [20]: Apparent volume of distribution in rat at 50 mg/kg, po measured upto 24 hrs by LC-MS/MS analysis. Type of data set: ADME, organism-based. The following applies: in vivo.

The source made the active and inactive calls. No cut-off for these calls is given here.

As a reminder, the IC50 is the concentration that inhibits the measured activity by half. In general, T/C refers to the ratio of treated to control. Turning to `CC(C)c1cc(C(=O)N2Cc3ccc(CN4CCN(C)CC4)cc3C2)c(O)cc1O` [ONALESPIB], the concentration for half-maximal inhibition (IC50) worked out at 20 nM with MCF7; 67 nM with U2OS; 13 nM in data set [1]; 11600 nM with L02; 18 nM with HepG2; 22 nM on Endoplasmin. The IC50 in the data set on MDA-MB-468 was 66 nM; with HCT-116 [3] it was 70 nM; in the data set with MKN-28, 129 nM; with BT-474 it was 32 nM; in the data set on K562 it was 38 nM; in the data set with MV4-11, 11 nM. The IC50 with SK-BR-3 amounted to 71 nM; in the data set on MDA-MB-231, 38 nM; in the data set on T47D, 24 nM; in the data set on A549, 50 nM. Moreover, the Ratio IC50 in data set [2] was 1.7. For the same compound, the T/C in the data set with HCT-116 [4] was determined as 21%. The Papp in [5] was determined as 74.3 ×10⁻⁶ cm/s.
For `CCNc1nc(OCCOC)nc2c1CN(C(=O)c1cc(C(C)C)c(O)cc1O)CC2`, the inhibition entry in data set [6], in data set [12], in data set [13] and in data set [14] was “Dose-dependent effect” throughout. Further, in the data set on HCT-116 [7], the outcome was Active. For the same compound, the inhibition entry in the data set with Mus musculus [8], with Mus musculus [10], with Mus musculus [15] and in the data set with Mus musculus [16] was “Active” in each case. Besides, the inhibition result with Rattus norvegicus [9] and with Rattus norvegicus [11] was “inactive” in each case. Further, the Ratio IC50 in data set [2] is 26.
As for `CCNc1nc(OCCOC)nc2c1CN(C(=O)c1cc(C(C)C)c(O)cc1O)CC2.Cl`, the Vd in [17] stood at 29.6 L/kg. The Activity result in [18] is reported as “Non-Toxic”. For the same compound, the T/C in the data set on HCT-116 [19] worked out at 45%; with HCT-116 [4], 23%. Further, in data set [20], the Vz is 1620.19 L/kg.

(Values after ChEMBL document CHEMBL4706476, “Novel Tetrahydropyrido[4,3-d]pyrimidines as Potent Inhibitors of Chaperone Heat Shock Protein 90” (J Med Chem, 2016).)
